Test results: ChEMBL document CHEMBL1123738, “Kinetics of solvolysis and muscarinic actions of an N-methyl-N-(2-bromoethyl)amino analogue of oxotremorine” (J Med Chem, 1987)

Key:
[1] = Rate of hydrolysis of compound at pH 7.3 and 22 degree Centigrade; type: ADME; conditions: buffer
[2] = Rate of hydrolysis of compound at pH 7.3 and 37 degree Centigrade; type: ADME; conditions: buffer
[3] = Rate of cyclization, as measured by rate of formation of compound at 22 degree Centigrade; type: ADME
[4] = Rate of cyclization, as measured by rate of formation of compound at 37 degree Centigrade; type: ADME
[5] = Rate of cyclization of compound at 22 degree Celsius and pH 7.67; type: ADME
[6] = pKa value of compound was determined; type: physicochemical
[7] = First-order rate constant for cyclization of the free base; type: ADME
[8] = Rate of cyclization of compound at 22 degree Centigrade and pH 6.25; type: ADME
[9] = Rate of cyclization of compound at 22 degree Celsius and pH 5.46; type: ADME
[10] = Equipotent potent ratio relative to carbachol (nicotinic activity); type: ADME
[11] = Apparent first-order rate constant for bromide ion release at 37 degree Celsius and pH 7.3; type: ADME
[12] = Half-life of compound at 22 degree Celsius and pH 4.24 was determined; type: ADME
[13] = Half-life of compound at 22 degree Celsius and pH 5.46 was determined; type: ADME
[14] = Half-life of compound at 22 degree Celsius and pH 7.29 was determined; type: ADME
[15] = Half-life of compound at 22 degree Celsius and pH 6.25 was determined; type: ADME
[16] = Rate of cyclization of compound at 22 degree Celsius and pH 7.29; type: ADME
[17] = Half-life of compound at 22 degree Centigrade and pH 7.67 was determined; type: ADME
[18] = Rate of cyclization of compound at 22 degree Celsius and pH 4.24; type: ADME

Row | Structure (SMILES) | k2 [1] [min⁻¹] | k2 [2] [min⁻¹] | k1 [3] [min⁻¹] | k1 [4] [min⁻¹] | k1 [5] [min⁻¹] | pKa [6] | k0 [7] [min⁻¹] | k1 [8] [min⁻¹] | k1 [9] [min⁻¹] | Molar ratio [10] | Rate constant [11] [min⁻¹] | half-life [12] [min] | half-life [13] [min] | half-life [14] [min] | half-life [15] [min] | k1 [16] [min⁻¹] | half-life [17] [min] | k1 [18] [min⁻¹]
1 | C[N+]1(CC#CCN2CCCC2=O)CC1.[Br-] | 0.00829 | 0.0395 | 0.145 | 0.845 | – | – | – | – | – | – | – | – | – | – | – | – | – | –
2 | CN(CC#CCN1CCCC1=O)CCBr | – | – | – | – | 0.1512 | 5.6 | 0.146 | 0.1146 | 0.0678 | 12.3 | 0.85 | 261 | 10.2 | 4.9 | 6.1 | 0.1406 | 4.6 | 0.00266
